Test results taken from US20050014751A1, “Use of n-acyl homoserine lactones for the treatment of insulitis” (priority 2001, published 2005).
Where “and” joins values, the source holds several entries; their conditions need not be identical. Identical values can stand only once.

Columns and labels:
insulitis in NOD mice = assay: Effect of OdDHL on insulitis in NOD mice (slide score); type: in vivo; settings: 3 times a week for four weeks
Protocol: To investigate the effect of OdDHL on insulitis or type I diabetes mellitus, mice (NOD) with a genetic predisposition to develop IDDM (insulin dependent diabetes mellitus) were treated with OdDHL. The animals were dosed at […] intraperitoneally from 4 weeks of age, 3 times a week for four weeks. Insulitis was assessed at 14 weeks. In the table a score of 3 or more (DMSO and PBS) represents severe grade insulitis and 1.3 (OdDHL) represents little infiltration (a score of 1 would represent low grade peri-insulitis). The mice were scored according to the method of Beales et al (European Journal of Pharmacology 357(1998) 221-225).

TNF-alpha production = TNF-alpha production from LPS-stimulated human PBMC; type: cell-based; settings: LPS 5×10^−5 μg/ml, 100,000 PBMC, 24 h, ELISA
Protocol: Bacterial lipopolysaccharide (LPS) stimulates the production of a variety of cytokines, including TNF-alpha, from human PBMC; these cytokines in turn influence the development of T cells, supporting a T helper 1 conducive milieu. Human PBMC prepared from whole blood by buoyant density centrifugation were resuspended in CTCM. HSL compounds were again tested at similar dilutions as for murine splenocytes in 200 μl of CTCM, containing 5×10^−5 μg/ml LPS Escherichia coli strain 055:B5 (Sigma, Poole, UK) and 100,000 PBMC. Following incubation for 24 h at 37° C. in 5% CO2-air, the cell culture supernatants were collected and tested for TNF-alpha levels by ‘sandwich’ ELISA. Briefly, 96-well Nunc MaxiSorp (Life Technologies, Paisley, UK) plates were coated with 50 μl of a 2 μg/ml solution of mouse anti-human TNF-alpha monoclonal antibody (Pharmingen, UK) in 0.05 M carbonate/bicarbonate buffer, pH 9.6 overnight at 4° C. After washing the plates three times with PBS-Tween, which contained phosphate buffered saline (PBS) with 0.5% (vol/vol) Tween 20 (Sigma, Poole, UK), the plates were blocked with 1% (wt/vol) bovine serum albumin (BSA) (Sigma, Poole, UK) at room temperature for 2 h. […] Following four washes, the bound biotinylated antibody was detected with 50 μl of a 1:1,000 dilution of Streptavidin-peroxidase (Pharmingen, UK). […] The enzyme reaction was stopped with 50 μl of 2.5 M H2SO4 after an incubation of 10 minutes at room temperature and the development was read at 450 nm with a spectrophotometric 96-well plate reader (Dynex). […]
Similar studies were carried out using, as the HSL compounds, N-(12-bromo-3-oxododecanoyl)-L-homoserine lactone (12BrOdDHL) and N-(12-hydroxy-3-oxododecanoyl)-L-homoserine lactone (12hydroxyOdDHL) and the plots for these are shown in FIG. 9. […] The IC50 value for dexamethasone was determined to be 500.
In the cell culture assays the number of cells used (mouse splenocytes and human PBMC) was initially optimised to 100,000 cells per well. The optimal dose of ConA of 1 μg/ml used in the cell proliferation assays was determined from ConA titration curves. […]

TNF-α production = settings: Infection and Immunity, vol.66, no.1, January 1998; cited from earlier work
diabetes in NOD mice = assay: In vivo effects of CSA, anti-TNFα and OdDHL in the diabetes model; settings: OdDHL 30 mg/kg, 3 times per week for 4 weeks
Protocol: Dose regimes of Cyclosporin A, anti-TNFα antibody and OdDHL were compared in the diabetes model. NOD mice were dosed at 25 mg/kg on alternate days for 160 days following the methodology of Mori et al (Diabetologia (1986) 29: 244-247), the content of which is incorporated herein by reference, for the investigation of CSA, and Anti TNF at 12 mg per individual, 0.5 mg three times a week for 8 weeks in accordance with the method of Suk et al (J. Immunology (2001) 166: 4481-4489), the content of which is incorporated herein by reference, was used for TNFα. OdDHL was dosed at 30 mg/kg, 3 times per week for 4 weeks as above.

murine spleen cells = settings: Infection and Immunity, vol.66, no.1, January 1998; cited from earlier work

Structure (SMILES): CCCCCCCCCC(=O)CC(=O)N[C@H]1CCOC1=O [OdDHL, N-(3-oxododecanoyl)-L-homoserine Lactone]
- Slide Score (insulitis), individual animal (insulitis in NOD mice; 100 mg/kg intraperitoneally from 4 weeks of age, insulitis assessed at 14 weeks, one value per animal, 100 mg/kg): 1.936 and 1.478 and 1.154 and 1.000 and 1.418
- Slide Score (insulitis), Group Total (insulitis in NOD mice; 100 mg/kg intraperitoneally, assessed at 14 weeks): 6.986
- Slide Score (insulitis), Group Mean (insulitis in NOD mice; 100 mg/kg intraperitoneally, assessed at 14 weeks, score of 3 or more = severe grade insulitis, 1 = low grade peri-insulitis, 100 mg/kg): 1.397
- inhibition of TNF-α secretion (FIG. 8) (TNF-alpha production): inhibited the secretion
- inhibition of TNF-α production by LPS-stimulated adherent murine peritoneal macrophages (TNF-α production): inhibiting
- in vivo action compared to reported data of Mori (CSA) and Suk (anti-TNF) (diabetes in NOD mice): more effective in vivo action than in vitro
- inhibition of concanavalin A mitogen stimulated proliferation of murine spleen cells (murine spleen cells): inhibiting
